Data from patent US20040127433A1, “Erythromycin derivative and medicament comprising the same” (priority 2000, published 2004).
Values after ≈ are worked out from the molar mass of the structure shown. Where two headings read alike, the source gives them in different places.

Columns and labels:
[1] = test system: clinical isolates of a typical acid-fast mycobacteria; assay: microbe, parasite or virus in culture; type: cell-based, Mycobacterium; details: 7H11 agar, 37° C., 7 days; for MIC: 168 h
Procedure: (§1) In order to evaluate excellent efficacy of the compounds of the present invention, their antibacterial spectrums against a typical acid-fast mycobacteria were measured. Clarithromycin, rifampicin and 4″-O-acetylerythromycin A 9-(O-methyloxime) [a compound disclosed in the Japanese Patent Unexamined Publication (KOKAI) No.63-107921/1988] were used as reference compounds. Ac in the formula represents acetyl group. [drawing 1313]
(§2) Antibacterial Activity Against a Typical Acid-Fast Mycobacteria
(§3) Antibacterial activities (minimum inhibitory concentrations) against clinical isolates of a typical acid-fast mycobacteria were measured by the agar dilution method according to the standard method of the Japan Society of Chemotherapy. About 5 μl of bacterial suspension (adjusted to […]) were spotted on the 7H11 agar plates containing the test compounds. The minimum inhibitory concentrations were determined by the growth or no growth of the bacteria after incubation at 37° C. for 7 days. The abbreviation M in the table represents Mycobacterium. The compounds of the present invention had more excellent antibacterial activity than the reference compounds against a typical acid-fast mycobacteria including clarithromycin-resistant strains (M.avium 20092 and other bacteria).

[2] = test system: M.avium 20092; assay: Antibacterial activity (minimum inhibitory concentration), agar dilution method, clarithromycin-resistant strain; type: cell-based, Mycobacterium avium; details: M. avium 20092 (clarithromycin-resistant), 7H11 agar, 37° C., 7 days; for MIC: Mycobacterium avium, 168 h
Procedure: as §1, §2, §3

[3] = Mycobacterium avium, read-out: Minimum inhibitory concentration, M. avium 20034
[4] = Mycobacterium avium, read-out: Minimum inhibitory concentration, M. avium 20045
[5] = Mycobacterium avium, read-out: Minimum inhibitory concentration, M. avium 20096
[6] = Mycobacterium intracellulare, read-out: Minimum inhibitory concentration, M. intracellulare 20066
[7] = Mycobacterium intracellulare, read-out: Minimum inhibitory concentration, M. intracellulare 20067
[8] = Mycobacterium intracellulare, read-out: Minimum inhibitory concentration, M. intracellulare 20073
[9] = Mycobacterium intracellulare, read-out: Minimum inhibitory concentration, M. intracellulare 20075

Molecule	Minimum inhibitory concentration ([1]; M. avium 20034) [µg/mL]	Minimum inhibitory concentration ([1]; M. avium 20045) [µg/mL]	Minimum inhibitory concentration ([1]; M. avium 20096) [µg/mL]	Minimum inhibitory concentration ([1]; M. intracellulare 20066) [µg/mL]	Minimum inhibitory concentration ([1]; M. intracellulare 20067) [µg/mL]	Minimum inhibitory concentration ([1]; M. intracellulare 20073) [µg/mL]	Minimum inhibitory concentration ([1]; M. intracellulare 20075) [µg/mL]	Minimum inhibitory concentration [2] [µg/mL]	melting point [°C]	MIC [1, 3] [µg/mL]	MIC [1, 4] [µg/mL]	MIC [1, 5] [µg/mL]	MIC [1, 6] [µg/mL]	MIC [1, 7] [µg/mL]	MIC [1, 8] [µg/mL]	MIC [1, 9] [µg/mL]	MIC [2] [µg/mL]
4″-O-Acetyl-2′-O-benzylaminocarbonylerythromycin A 9-[O-(3-cyclo-hexylpropyl)oxime] [Example 40]	0.39	0.78	0.78	0.20	0.78	0.78	0.78	0.78									
CC[C@H]1OC(=O)[C@H](C)[C@@H](O[C@H]2C[C@@](C)(OC)[C@@H](O)[C@H](C)O2)C[C@@H](O[C@@H]2O[C@H](C)C[C@H](N(C)C)[C@H]2OC(=O)NCc2ccccc2)C(C)(O)C[C@@H](C)C(=NOCCCOc2ccccc2)[C@H](C)[C@@H](O)[C@]1(C)O (some centres unmarked) [Example 34]									107 to 110								
CCCCCCCCON=C1[C@H](C)CC(C)(O)[C@H](O[C@@H]2O[C@H](C)C[C@H](N(C)C)[C@H]2OC(=O)NCc2ccccc2)C[C@H](O[C@H]2C[C@@](C)(OC)[C@@H](OC(C)=O)[C@H](C)O2)[C@@H](C)C(=O)O[C@H](CC)[C@@](C)(O)[C@H](O)[C@H]1C (some centres unmarked) [Example 94]										0.39 (≈ 0.381 µM)	0.78 (≈ 0.763 µM)	0.39 (≈ 0.381 µM)	0.39 (≈ 0.381 µM)	0.39 (≈ 0.381 µM)	0.39 (≈ 0.381 µM)	0.39 (≈ 0.381 µM)	0.39 (≈ 0.381 µM)
CC[C@H]1OC(=O)[C@H](C)[C@@H](O[C@H]2C[C@@](C)(OC)[C@@H](O)[C@H](C)O2)[C@H](C)[C@@H](O[C@@H]2O[C@H](C)C[C@H](N(C)C)[C@H]2O)[C@](C)(OC)C[C@@H](C)C(=O)[C@H](C)[C@@H](O)[C@]1(C)O [compound 1, Clarithromycin]										3.13 (≈ 4.18 µM)	1.56 (≈ 2.09 µM)	> 50	3.13 (≈ 4.18 µM)	1.56 (≈ 2.09 µM)	1.56 (≈ 2.09 µM)	3.13 (≈ 4.18 µM)	> 50
CO[C@H]1/C=C/O[C@@]2(C)Oc3c(C)c(O)c4c(O)c(c(/C=N/N5CCN(C)CC5)c(O)c4c3C2=O)NC(=O)/C(C)=C\C=C\[C@H](C)[C@H](O)[C@@H](C)[C@@H](O)[C@@H](C)[C@H](OC(C)=O)[C@@H]1C [compound 2, rifampicin]										12.5 (≈ 15.2 µM)	3.13 (≈ 3.8 µM)	3.13 (≈ 3.8 µM)	3.13 (≈ 3.8 µM)	1.56 (≈ 1.9 µM)	3.13 (≈ 3.8 µM)	3.13 (≈ 3.8 µM)	50 (≈ 60.8 µM)
CC[C@H]1OC(=O)[C@H](C)[C@@H](O[C@H]2C[C@@](C)(OC)[C@@H](OC(C)=O)[C@H](C)O2)[C@H](C)[C@@H](O[C@@H]2O[C@H](C)C[C@H](N(C)C)[C@H]2O)[C@](C)(O)C[C@@H](C)C(=NOC)[C@H](C)[C@@H](O)[C@]1(C)O [compound 3, 4″-O-acetylerythromycin A 9-(O-methyloxime)]	>50	12.5 (≈ 15.5 µM)	>50	12.5 (≈ 15.5 µM)	6.25 (≈ 7.76 µM)	12.5 (≈ 15.5 µM)	12.5 (≈ 15.5 µM)	>50									
